What all share (type): functional, cell-based
The subject of assay [1] is A549. Kind of assay: Antiproliferative activity against human A549 cell line.
Assay [2] deals with HT-29. Kind of assay: Antiproliferative activity against human HT29 cell line.
Assay [3] relates to SW-60. Kind of assay: Antiproliferative activity against […].
Assay [4] has as its system OVCAR-5. Kind of assay: Antiproliferative activity against human OVCAR5 cell line.
Assay [5] deals with PC-3. Kind of assay: Antiproliferative activity against human PC3 cell line.
Assay [6] relates to HOP-62. Kind of assay: Antiproliferative activity against human HOP62 cell line.
Setting [7] is: Homo sapiens, A549, read-out: IC50.
[8] abbreviates: Homo sapiens, HT-29, read-out: IC50.
Where [9] appears, read: Homo sapiens, SW-60, read-out: IC50.
Setting [10] is: Homo sapiens, PC-3, read-out: IC50.
Where [11] appears, read: Homo sapiens, HOP-62, read-out: IC50.
Where [12] appears, read: Homo sapiens, OVCAR-5, read-out: IC50.

Usually IC50 stands for the midpoint of a concentration-inhibition curve. For the compound `COC(=O)C[C@H]1[C@]2(C)C3=C(C)[C@H](c4ccoc4)C[C@H]3O[C@@H]2[C@H](O)[C@@H]2[C@]1(C)C(=O)C=C[C@@]2(C)C(=O)NCc1ccc(C(F)(F)F)cc1`, the IC50 in assay [1] (setting [7]) is 37.3 µM; in assay [2] (setting [8]), 17.5 µM; in assay [3] (setting [9]), 26.4 µM; in assay [4] (ovcar-5), “Not Active”; in assay [5] (setting [10]), 32.3 µM; in assay [6] (setting [11]), 14.1 µM.

In the case of `COC(=O)C[C@H]1[C@]2(C)C3=C(C)[C@H](c4ccoc4)C[C@H]3O[C@@H]2[C@H](O)[C@@H]2[C@]1(C)C(=O)C=C[C@@]2(C)C(=O)NCc1ccc(F)cc1`, the IC50 result was “Not Active” in assay [1] (a549); 78.1 µM in assay [2] (setting [8]); “Not Active” in assay [3] (sw-60); 84.1 µM in assay [4] (setting [12]); “Not Active” in assay [5] (pc-3); “Not Active” in assay [6] (hop-62).

Take `COC(=O)C[C@H]1[C@]2(C)C3=C(C)[C@H](c4ccoc4)C[C@H]3O[C@@H]2[C@H](O)[C@@H]2[C@]1(C)C(=O)C=C[C@@]2(C)C(=O)N1CCOCC1`: the IC50 result is “Not Active” in assay [1] (a549); 3.38 µM in assay [2] (setting [8]); 5.72 µM in assay [3] (setting [9]); 2.11 µM in assay [4] (setting [12]); 2.26 µM in assay [5] (setting [10]); “Not Active” in assay [6] (hop-62).

Take `COC(=O)C[C@H]1[C@]2(C)C3=C(C)[C@H](c4ccoc4)C[C@H]3O[C@@H]2[C@H](O)[C@@H]2[C@]1(C)C(=O)C=C[C@@]2(C)C(=O)NCC(C)C`: the IC50 entry in assay [1] (a549) is “Not Active”; in assay [2] (setting [8]), 0.05 µM; in assay [3] (setting [9]) it was 0.08 µM; in assay [4] (setting [12]), 1.53 µM; in assay [5] (setting [10]), 7.43 µM; in assay [6] (setting [11]) it was 4.83 µM.

Take `COC(=O)C[C@H]1[C@]2(C)C3=C(C)[C@H](c4ccoc4)C[C@H]3O[C@@H]2[C@H](O)[C@@H]2[C@]1(C)C(=O)C=C[C@@]2(C)C(=O)NCc1ccc(OC)cc1`: the IC50 entry in assay [1] (a549) is “Not Active”; in assay [2] (ht-29) it was “Not Active”; in assay [3] (sw-60) it was “Not Active”; in assay [4] (setting [12]) it was 93.1 µM; in assay [5] (setting [10]) it was 21.5 µM; in assay [6] (setting [11]), 102 µM.

As to `COC(=O)C[C@H]1[C@]2(C)C3=C(C)[C@H](c4ccoc4)C[C@H]3O[C@@H]2[C@H](O)[C@@H]2[C@]1(C)C(=O)C=C[C@@]2(C)C(=O)NCc1ccccc1`, the concentration for half-maximal inhibition (IC50) entry was “Not Active” in assay [1] (a549); 43.2 µM in assay [2] (setting [8]); “Not Active” in assay [3] (sw-60); 82.4 µM in assay [4] (setting [12]); “Not Active” in assay [5] (pc-3); 26.3 µM in assay [6] (setting [11]).

For `COC(=O)C[C@H]1[C@]2(C)C3=C(C)[C@H](c4ccoc4)C[C@H]3O[C@@H]2[C@H](O)[C@@H]2[C@]1(C)C(=O)C=C[C@@]2(C)C(=O)NC(C(=O)OC)c1ccccc1` (stereo partly specified), the IC50 result was “Not Active” in assay [1] (a549); 8.62 µM in assay [2] (setting [8]); “Not Active” in assay [3] (sw-60); “Not Active” in assay [4] (ovcar-5); 8.11 µM in assay [5] (setting [10]); 13.5 µM in assay [6] (setting [11]).

In the case of `COC(=O)C[C@H]1[C@]2(C)C3=C(C)[C@H](c4ccoc4)C[C@H]3O[C@@H]2[C@H](O)[C@@H]2[C@]1(C)C(=O)C=C[C@@]2(C)C(=O)N1CCCCC1`, the IC50 was 78.3 µM in assay [1] (setting [7]); 91.5 µM in assay [2] (setting [8]); “Not Active” in assay [3] (sw-60); 62.3 µM in assay [4] (setting [12]); 48.2 µM in assay [5] (setting [10]); “Not Active” in assay [6] (hop-62).

For `COC(=O)C[C@H]1[C@]2(C)C3=C(C)[C@H](c4ccoc4)C[C@H]3O[C@@H]2[C@H](O)[C@@H]2[C@]1(C)C(=O)C=C[C@@]2(C)C(=O)NCc1cccc(OC)c1`, the IC50 entry in assay [1] (a549) was “Not Active”; in assay [2] (setting [8]), 63.1 µM; in assay [3] (sw-60), “Not Active”; in assay [4] (ovcar-5) it was “Not Active”; in assay [5] (pc-3), “Not Active”; in assay [6] (setting [11]), 79.2 µM.

Consider `COC(=O)C[C@H]1[C@]2(C)C3=C(C)[C@H](c4ccoc4)C[C@H]3O[C@@H]2[C@H](O)[C@@H]2[C@]1(C)C(=O)C=C[C@@]2(C)C(=O)NC(C)c1ccccc1` (stereo partly specified), for which the IC50 result in assay [1] (a549) is “Not Active”; in assay [2] (setting [8]) it was 47.2 µM; in assay [3] (sw-60), “Not Active”; in assay [4] (setting [12]), 89.2 µM; in assay [5] (setting [10]) it was 43.1 µM; in assay [6] (hop-62), “Not Active”.

With `COC(=O)C[C@H]1[C@]2(C)C3=C(C)[C@H](c4ccoc4)C[C@H]3O[C@@H]2[C@@H]2OC(=O)[C@]3(C)C=CC(=O)[C@@]1(C)[C@@H]23` [NIMBOLIDE], the IC50 was 15.6 µM in assay [1] (setting [7]); 6.94 µM in assay [2] (setting [8]); 8.25 µM in assay [3] (setting [9]); 4.17 µM in assay [4] (setting [12]); 4.59 µM in assay [5] (setting [10]); 10.4 µM in assay [6] (setting [11]).

The record behind these values is ChEMBL document CHEMBL1145323, “Synthesis and biological activity of amide derivatives of nimbolide” (Bioorg Med Chem Lett, 2006).
